Experimental data from US20210267981A1, “COMPOUNDS FOR THE TREATMENT OF HIV INFECTION AND OTHER DISEASES CAUSED BY RNA VIRUSES” (UNIVERSIDAD CATOLICA DE VALENCIA "SAN VICENTE MARTIR", priority 2018, published 2021).
Where two headings read alike, the source gives them in different places.

Experiments:
[1] = tested on: complete HIV-1 (NL4.3-luc); test: Cell transfection assay, full-length HIV-1 luciferase plasmid (NL4.3-luc) in MT-2 cells; assay type: cell-based
Method: (§1) Cell Transfection Assays.
(§2) MT-2 cells were transfected with plasmids containing a luciferase reporter gene the expression of which was under the control of the complete HIV-1 (NL4.3-luc) or HIV-1 LTR promoter (LTR-Luc). After transfection, the cells were treated with different compound concentrations, and the luciferase activity in the cell lysates was quantified 48 h later (Prado et al., Biochem Pharmacol 107 (2016) 14-28; Gonzalez-Bulnes et al., Angewandte Chemie-International Edition 52(50) (2013) 13405-13409).
In order to identify the target or the set of targets of the tested compounds, an assay based on the transfection of a full-length HIV-1 vector is performed. In this experiment, the entry, reverse transcription, and DNA integration phases of the viral cycle are sidestepped, such that only transcriptional or post-transcriptional events which can be blocked by the inhibitor under study are produced.

[2] = tested on: subdomain IIB of the RRE (IIBh-19ap RNA); test: Fluorescence intensity binding to IIBh RNA, with or without competing RNAtCys or LTRd DNA; design: species or system HIV-1; details: for specificity of the interaction with IIB: 100-fold molar excess of RNAtCys or LTRd; for specificity IIB/DNA: Kd(IIBh)/Kd(IIBh + LTRd) quotient; for specificity IIB/RNA: Kd(IIBh)/Kd(IIBh + tRNA) quotient
Method: Depending on the absorption spectra of the compounds, these experiments measured association with IIBh-19ap or IIBh-23fl RNA sequences labeled with 2-aminopurine and fluorescein in residues A19 and U23 of the IIB loop, respectively (Prado et al., Biochem Pharmacol 107 (2016) 14-28), and were carried out in a SPECTRA GEMINI XPS plate reader (Molecular Devices, Sunnyvale, USA) or a Victor X5 plate reader (Perkin Elmer). The IIB RNA concentration in these assays was 100 nM, and the specificity of the interactions with respect to RNA and DNA was evaluated by duplicating the experiments in the presence of a 100-fold molar excess (10 μM) of RNAtCys or LTRd DNA duplex. All the fluorescence intensity experiments were performed at least three times for each compound.
The specificity of the interaction was evaluated by duplicating the experiments in the presence of a 100-fold molar excess of RNAtCys. Likewise, specificity with respect to a double-stranded DNA was evaluated by further performing the experiments with a 100-fold molar excess of a DNA duplex with 26 base pairs (identified as LTRd) containing NF-κB and Sp-1 transcription factor-binding sites (Prado et al., Biochem Pharmacol 107 (2016) 14-28). These two factors bind to the LTR promoter of HIV-1 DNA and are essential for virus replication (Jones et al., AnnuRevBiochem 63 (1994) 717-43).

[3] = Cell toxicity, CellTiter-Glo assay; assay type: cell-based; details: human
From the text: (§3) Anti-HIV-1 Activity and Cell Toxicity.
(§4) The methodology used for performing and analyzing these experiments has been described previously (Prado et al., Biochem Pharmacol 107 (2016) 14-28; Gonzalez-Bulnes et al., Angewandte Chemie-International Edition 52(50) (2013) 13405-13409). Briefly, infectious supernatants were obtained from 293T cells transfected with the pNL4.3-Ren plasmid. MT-2 cells were infected with these supernatants in the presence of the compounds, and the anti-HIV activity was quantified 48 h after infection by determining luciferase activity in the cell lysates. Cell viability was evaluated in cells treated with the same compound concentrations using the CellTiter-Glo assay (Promega). The antiviral activity and cell toxicity results represent the average of at least three independent experiments.

MT-2 cells = test: Cell toxicity, CellTiter-Glo assay; assay type: cell-based; details: CC50 versus antiviral concentration of the infection experiments
From the text: as §3, §4

IIBh RNA = test: NMR spectroscopy of compound binding to IIBh RNA; design: species or system HIV-1; details: increasing ligand:RNA molar ratios
Method: The NMR spectra were acquired in a 500 MHz Bruker Avance spectrometer and analyzed with Topspin 3.5 (Bruker Biospin, Billerica, USA). The interaction between the tested compounds and IIBh RNA samples dissolved at a concentration of 40-60 μM were monitored as described previously in the state of the art (Prado et al., Biochem Pharmacol 107 (2016) 14-28; Gonzalez-Bulnes et al., Angewandte Chemie-International Edition 52(50) (2013) 13405-13409), using one-dimensional and two-dimensional experiments (TOCSY) at increasing ligand:RNA molar ratios.
NMR spectroscopy is then used for identifying the binding sites in the IIBh fork of the compounds. […] This compound altered the signals of residues C9, A19, C20, and U23 comprising the Rev binding site, but also disrupted the signals of the double-helix stems flanking the loop. 2a and 2b required a higher drug:RNA molar ratio to induce changes in the signals of IIBh RNA.

HIV-1 = test: Anti-HIV-1 activity, cell infection assay in MT-2 cells (pNL4.3-Ren supernatants); assay type: cell-based
Method: Plasmids, Virus, and Cells for Ex Vivo Assays.
Vectors pNL4.3-Luc and pNL4.3-Ren were generated by cloning luciferase and Renilla genes, respectively, in the nef site of HIV-1 proviral plasmid pNL4.3 (Adachi et al., J Virol 59(2) (1986) 284-91), as described previously in the state of the art (Garcia-Perez et al., J Med Virol 79(2) (2007) 127-37). MT-2 cells (Harada et al., Science 229(4713) (1985) 563-6) and 293T cells (American Type Culture Collection, Rockville, USA) were cultured as described previously (Prado et al., Biochem Pharmacol 107 (2016) 14-28).
as §3, §4

complete RRE-Rev complex = test: Electrophoretic mobility shift assay (EMSA) of complete RRE-Rev complex formation; assay type: binding, HIV-1; details: for IC50: 78 nM RRE and 1.32 μM Rev, two independent experiments
Method: Electrophoretic Mobility Shift Assays (EMSA).
These experiments used 78 nM of complete RRE, 1.32 μM of complete Rev, and increasing concentrations of each compound, and were carried out and analyzed as described previously in the state of the art (Prado et al., Biochem Pharmacol 107 (2016) 14-28; Fang et al., Cell 155(3) (2013) 594-605). The IC50 values were determined by measuring the area and the intensity of the band corresponding to free RRE. These experiments were performed at least three times for each compound.
(§5) The capacity of the compounds to inhibit IIB-Rev34-50 interaction was evaluated by means of an assay based on the detection, by means of fluorescence anisotropy (FA), of the shift of an FITC-labeled Rev34-50 peptide from its binding site in subdomain IIB of RRE. The capacity of the compounds to inhibit the formation of the RRE-Rev complex was evaluated by means of an electrophoretic mobility shift assay (EMSA).

[4] = tested on: IIB-Rev34-50 interaction (subdomain IIB of RRE and FITC-labeled Rev34-50 peptide); test: Fluorescence anisotropy (FA) inhibition of IIBh-Rev34-50 interaction; assay type: binding, HIV-1
Method: Fluorescence Anisotropy (FA).
These experiments were performed and analyzed as described in the state of the art (Prado et al., Biochem Pharmacol 107 (2016) 14-28; Gonzalez-Bulnes et al., Angewandte Chemie-International Edition 52(50) (2013) 13405-13409; Luedtke et al., Biopolymers 70(1) (2003) 103-19), using 96-well plates and Victor X3 or Victor X5 plate readers (Perkin Elmer, Waltham USA). The assays used 10 nM of frevp and 60 nM of IIBh, and included one positive control (a mixture of IIBh and frevp) and two negative controls (frevp and a mixture of IIBh, frevp, and neomycin B). IIBh-frevp inhibition was only considered to exist when anisotropy reached the expected minimum value at the highest inhibitor concentrations. To ensure that there would not be spectral superposition with FITC, anisotropy data was also collected for each of the compounds. None of them emitted fluorescence under the assay conditions. These experiments were repeated three times for each compound.
as §5

[5] = tested on: HIV-1 LTR promoter (LTR-Luc); test: Cell transfection assay, LTR-Luc plasmid in MT-2 cells; assay type: cell-based; details: for EC50: read-out: EC50 of transfection, LTR; for inhibition of LTR-dependent expression: compared with HIV-1 infection and transfection assays
Method: as §1, §2
The antiviral mechanism of compounds 1a and 2a was examined with additional cellular assays.

[6] = tested on: HIV-1 RNA transcripts (RRE-Rev system in a cellular context); test: HIV-1 RNA processing analysis by RT-qPCR in MT-2 cells transfected with pNL4.3; assay type: cell-based; details: 5 and 10 μM
Method: HIV-1 RNA Processing Analysis.
MT-2 cells, previously treated for 72 or 96 hours with two different concentrations (5 and 10 μM) of compound 1a or 2a, were transfected with a pNL4.3 plasmid. Total cellular RNA was then isolated, treated with DNase I, and reverse transcribed as described in the state of the art (Prado et al., Biochem Pharmacol 107 (2016) 14-28). The unprocessed, semi-processed, and completely processed HIV-1 RNA transcripts were quantified by means of qPCR in relation to an untreated control obtained, using primers described by Mohammadi et al. (PLoS Pathog 9(1) (2013) e1003161), and GAPDH as endogenous control.
Whether or not compounds 1a and 2a acted in the RRE-Rev system in a cellular context was then verified. After transfecting the cells with a full-length proviral vector, the amounts of unprocessed, semi-processed, and completely processed HIV-1 RNA transcripts were quantified by means of RT-qPCR in the absence and presence of each compound (Prado et al., Biochem Pharmacol 107 (2016) 14-28). Given that Rev indirectly puts the splicing process at a disadvantage by transporting unprocessed or semi-processed viral transcripts from the nucleus to the cytoplasm, the blocking of the RRE-Rev system should increase the levels of completely processed species and reduce the amount of unprocessed or semi-processed HIV-1 transcripts.

[7] = Human immunodeficiency virus 1, MT2, 48 h, read-out: EC50 of transfection, HIV
[8] = Human immunodeficiency virus 1, MT2, read-out: EC50 transfection assay of full-length HIV-1 vector
[9] = IIBh-19ap, 100-fold molar excess of LTRd DNA duplex, read-out: Kd(IIBh + LTRd)
[10] = IIBh-19ap, 100-fold molar excess of RNAtCys, read-out: Kd(IIBh + tRNA)
[11] = MT-2 cells, CellTiter-Glo, read-out: CC50
[12] = Human immunodeficiency virus 1, MT2, 48 h, read-out: EC50 of infection, HIV
[13] = Human immunodeficiency virus 1, MT2, read-out: EC50 cell infection assay
[14] = range given for FA and EMSA together for 2a and 2b, read-out: IC50 (FA, IIB-Rev34-50 interaction)
[15] = IIBh-19ap, no competitor, read-out: Kd(IIBh)
[16] = 60 nM IIBh and 10 nM frevp, three independent experiments, read-out: IC50 IIB-Rev34-50

## CN(C)CCOc1cc2c(c3ccccc13)-c1ccccc1C2=O [Compound 1a]
[1]; [7]
  EC50: 2.5 µM
[1]; [8]
  EC50: 2.5 to 3.3 µM
[2]
  specificity of the interaction with IIB: moderate specificity
  specificity IIB/DNA: 0.50
  specificity IIB/RNA: 0.58
[2]; [9]
  Kd: 2.8 µM
[2]; [10]
  Kd: 2.4 µM
[2]; fluorescence intensity, read-out: Kd for subdomain IIB of the RRE
  Kd: 1.4 µM
[3]; [11]
  CC50: 28.1 µM
MT-2 cells
  CC50 values fold greater than the antiviral concentrations: 34 fold
IIBh RNA
  changes of IIBh RNA NMR signals: widened or altered the chemical shift of IIBh resonances at low drug:RNA molar ratios
HIV-1; [12]
  EC50: 0.83 µM
HIV-1; [13]
  EC50: 0.83 µM
Complete RRE-Rev complex
  concentrations at which formation of RRE-Rev complexes with an unusual molecular weight was promoted: greater than 10 μM
[4]; [14]
  IC50: 6.7 µM
[5]; Human immunodeficiency virus 1, MT2, 48 h
  EC50: 12.5 to 25 µM
[5]
  inhibition of LTR-dependent expression: weaker inhibition of LTR-dependent expression in relation to the activity detected in the complete HIV-1 transfection assay
[6]
  effect on pattern of unprocessed, semi-processed and completely processed HIV-1 RNA transcripts: This effect was clearly observed
  levels of viral transcripts in relation to untreated cells: significant reduction in the levels of viral transcripts

## Fc1nc(N2CCNCC2)c(F)c(Sc2ccc(Cl)cc2)c1F [Compound 2a]
[1]; [7]
  EC50: 3.3 µM
[1]; [8]
  EC50: 2.5 to 3.3 µM
[2]
  specificity of the interaction with IIB: specific
  specificity IIB/DNA: 1.17
  specificity IIB/RNA: 1.20
[2]; [9]
  Kd: 9.2 µM
[2]; [10]
  Kd: 9 µM
[2]; [15]
  Kd: 10.8 µM
[3]
  CC50: 43.9 µM
MT-2 cells
  CC50 values fold greater than the antiviral concentrations: 22 fold
IIBh RNA
  changes of IIBh RNA NMR signals: affected the signals of residues located in the stems flanking the internal loop
HIV-1; [12]
  EC50: 2 µM
HIV-1; [13]
  EC50: 2 µM
Complete RRE-Rev complex
  IC50: 4.7 µM
[4]; [16]
  IC50: 4.8 µM
[5]; Human immunodeficiency virus 1, MT2, MT-2 cells, LTR-Luc, 48 h
  EC50: 4.4 µM
[5]
  inhibition of LTR-dependent expression: inhibited LTR-dependent expression with an EC50 value similar to those measured in the HIV-1 infection and transfection experiments
[6]
  effect on pattern of unprocessed, semi-processed and completely processed HIV-1 RNA transcripts: did not induce clear changes in the patterns of unprocessed viral transcripts with respect to processed viral transcripts
  levels of viral transcripts in relation to untreated cells: reduced the amount of viral transcripts to a lesser extent with respect to 1a

## N=c1c(S(=O)(=O)c2ccc(Cl)cc2)cc2c(=O)n3ccccc3nc2n1C1CCCCC1 [Compound 2b]
[1]; [7]
  EC50: > 100 µM
[1]; at concentrations lower than 100 μM
  activity in the transfection assay: inactive
[2]
  specificity of the interaction with IIB: specific
  specificity IIB/DNA: 1.19
  specificity IIB/RNA: 1.06
[2]; [9]
  Kd: 10.2 µM
[2]; [10]
  Kd: 11.4 µM
[2]; [15]
  Kd: 12.1 µM
[3]; [11]
  CC50: > 100 µM
MT-2 cells
  CC50 values fold greater than the antiviral concentrations: > 10 fold
IIBh RNA
  changes of IIBh RNA NMR signals: only induced the widening of signals of residue U23 of the loop at a high drug:RNA molar ratio
HIV-1; [12]
  EC50: 10.2 µM
HIV-1; [13]
  EC50: 10.2 µM
Complete RRE-Rev complex
  IC50: 13.7 µM
[4]; [16]
  IC50: 10.3 µM
[4]; [14]
  IC50: 10.3 to 13.7 µM
